Measured values reported in US20250320215A1, “SALTS OF N-[4-(4-[[2-(DIMETHYLAMINO)ETHYL]AMINO]-3-METHYL-1H-PYRAZOLO[3,4-D]PYRIMIDIN-6-YL)-2-FLUOROPHENYL]-2,5-DIFLUOROBENZENESULFONAMIDE AND CRYSTALLINE FORMS THEREOF” (THRYV THERAPEUTICS INC, priority 2022, published 2025).
Values after ≈ are worked out from the molar mass of the structure shown. Blank lines part the entries; values can stand above or below the molecule they belong to.

Columns and labels:
Format in all cases: physicochemical
[1] = Slurry study evaluated by XRPD; details: slurry started from Form B; Form C occurred at 30 min; at 60 min
[2] = Solubility of the salts in water / MTBE
Method: Solubility in water is >25 mg/mL.

[3] = Dynamic vapor sorption/desorption (DVS) with post-DVS XRPD; details: for Post-DVS XRPD: XRPD after DVS versus before; for Reversibility (DVS): sorption/desorption
Method: Moisture sorption/desorption data were collected on a DVS Intrinsic. 7-20 mg of a sample was placed into a tared sample chamber and automatically weighed. The anhydrates were analyzed with the following setting parameters:
DVS experiments (FIGS. 17, 19, 21, 34, 35, 48 and 50) and XRPD post-DVS experiments (FIGS. 18, 20, 22, 36, 49 and 51) were conducted in order to study the deliquescence behaviour of the crystalline salts upon expose to humidity.

[4] = Drying, physical stability of the form
Method: After being subjected to drying in a vacuum oven for 1 day at 62-72° C., Form A was characterized by XRPD (FIG. 22: pre-DVS) and proton NMR (FIG. 15).
Form E was obtained by slow cooling crystallization in NMP (FIG. 43). The unstable form has not been characterized further. A clear solution of Compound 4, Form B was dissolved (30 mg) in NMP at 50° C. and cooled from 50° C. to 2° C.

[5] = Comparative study (interconversion and water activity) between crystalline forms; details: Compound 3: Forms B, C, D, E, non-aqueous and aqueous systems; Compound 4: Forms B to G
Method: (capped) and 40° C. with 75% relative humidity (open).
Form D is stable at high water activity (0.16≤aW≤0.90). Solid stability study indicated Form D was physically and chemically stable at 60° C. (close) and 40° C. at 75% RH for 7 days.

[6] = Solid stability testing (HPLC purity and XRPD); details: for Solid stability: 60° C. (capped/close) and 40° C./75% RH (open) for 7 days; for Purity, Initial T0 / Purity - 7 days, 60° C. / Purity - 7 days, 40° C./75% RH: HPLC; for Purity, Initial T0 / XRPD, Initial T0: before storage; for Purity - 7 days, 60° C. / XRPD - 7 days, 60° C.: capped/closed vial; for Purity - 7 days, 40° C./75% RH / XRPD - 7 days, 40° C./75% RH: open
Method: HPLC analysis were performed with an Agilent HPLC 1260 series instrument. HPLC method for stability testing is as follows:
Solid stability testing of Compound 3, Form D was evaluated at the conditions of 60° C. (capped) and 40° C./75% RH (open) for 7 days. Polymorphic form and purity were analyzed by XRPD and HPLC, respectively. […] (capped) and 40° C./75% RH (open) for 7 days.
Solid stability testing of Compound 4 Form B and Form D were evaluated at the conditions of 60° C. (vial close) and 40° C./75% RH (vial open) for 7 days. Polymorphic form and purity were checked by XRPD and HPLC, respectively.

[7] = Water activity study (competition of forms, XRPD); details: room temperature
Method: Water activity study was performed using Compound 3 Form B (anhydrate) as the input material in EtOH/Water with different water content at RT. About 5 mg of Compound 3, Form B was used to prepare saturated solutions and the solutions were filtered by syringe at RT. 5 mg of Compound 3, Form D were added in the 1 mL of filtrate, and the suspension was slurried at RT for 3 and 7 days. The solids collected after filtration were analyzed by XRPD.
Protocol: excess amount of Compound 4 Form B was used to prepare saturated solutions. 6-8 mg each of Compound 4 Form B and Form D were added in the solutions. The suspension was slurried at room temperature for the corresponding times. Residual solids were collected by filtration with syringe filter, and characterized by XRPD.

[8] = Thermal treatment (heat-cool cycle by DSC, XRPD of resulting solids)
Method: Compound 3, Form E was treated with heat-cool cycle by DSC. The resulted solids were characterized by XRPD. Compound 3, Form E, was converted to Compound 3, Form D after desolvation.
Compound 4 Form B was treated with heat-cool cycle by DSC. The resulted solids were checked by XRPD. […] The water was excluded at elevated temperature, then entered in the crystal lattice again at room temperature.
Compound 4 Form C and trace Form B was treated with heat-cool cycle by DSC. The resulted solids were checked by XRPD. The sample was converted to low crystalline (LC) Form B after heating to 175° C.
Compound 4 Form D was treated with heat-cool cycle by DSC. The resulted solids were checked by XRPD. The sample kept unchanged after heating to 140° C., but was converted to a new low crystalline form after heating to 210° C. which was assigned to Form F.

[9] = pKa values and protonation state of Compound 1
[10] = Solubility estimates by aliquot addition method in various solvents; details: thermodynamic from solid
Method: Solubility estimates were conducted using an aliquot addition method in a variety of solvents at ambient temperature.
Samples with solvents with poor solubility were heated at 50° C.

SMILES: Cc1n[nH]c2nc(-c3ccc(NS(=O)(=O)c4cc(F)ccc4F)c(F)c3)nc(NCCN(C)C)c12 [Compound 4 Form C]
form conversion during slurry in THF [1]: converted to di-mesylate Form D completely

SMILES: Cc1n[nH]c2nc(-c3ccc(NS(=O)(=O)c4cc(F)ccc4F)c(F)c3)nc(NCCN(C)C)c12.Cl [Compound 3 Form A]
solubility at 1 day ([2]; water, thermodynamic from solid): < 1000 µg/mL
Post-DVS XRPD [3]: No change
wt % gain (DVS) ([3]; from 5 to 96% RH): 2.1 wt %

SMILES: Cc1n[nH]c2nc(-c3ccc(NS(=O)(=O)c4cc(F)ccc4F)c(F)c3)nc(NCCN(C)C)c12 [Compound 2]
Solubility in water ([2]; water): < 1000 µg/mL
Post-DVS XRPD [3]: No change
wt % gain (DVS) ([3]; from 5 to 95% RH): 0.4 wt %

SMILES: Cc1n[nH]c2nc(-c3ccc(NS(=O)(=O)c4cc(F)ccc4F)c(F)c3)nc(NCCN(C)C)c12.Cl [Compound 3 Form D]
relative stability among the crystalline forms [5]: most stable form
Solid stability [6]: chemically and physically stable
Purity, Initial T0 [6]: 99.19%
Purity - 7 days, 60° C. [6]: 99.24%
Purity - 7 days, 40° C./75% RH [6]: 99.30%
XRPD, Initial T0 [6]: Form D
XRPD - 7 days, 60° C. [6]: Form D
XRPD - 7 days, 40° C./75% RH [6]: Form D
hygroscopicity [3]: slightly hygroscopic
wt % gain (DVS) ([3]; first value of '1.5 wt % and 1.7 wt % gain from 80 to 90% RH'): 1.5 wt %
Reversibility (DVS) [3]: Minor hysteresis
water activity (aw) at which the form is stable / the most stable form [7]: lower than 0.6

SMILES: Cc1n[nH]c2nc(-c3ccc(NS(=O)(=O)c4cc(F)ccc4F)c(F)c3)nc(NCCN(C)C)c12 [Compound 1, N-[4-(4-[[2-(dimethylamino)ethyl]amino]-3-methyl-1H-pyrazolo[3,4-d]pyrimidin-6-yl)-2-fluorophenyl]-2,5-difluorobenzenesulfonamide]
pKa ([9]; first of four pKa values): 2.7
pKa ([9]; fourth of four pKa values): 11.8
Charge (dominant protonation state) ([9]; pH 5.81-8.85): Neutral (Zwitterion)
pKa ([9]; second of four pKa values): 5.81
pKa ([9]; third of four pKa values): 8.85
solubility ([10]; ACN, 50 °C, organic solvent or mixture, read-out: Solubility at 50° C.): < 1000 µg/mL
solubility ([10]; ACN, organic solvent or mixture, read-out: Solubility at RT): < 1000 µg/mL
solubility ([10]; DCM, 50 °C, organic solvent or mixture, read-out: Solubility at 50° C.): < 1000 µg/mL
solubility ([10]; DCM, organic solvent or mixture, read-out: Solubility at RT): < 1000 µg/mL
solubility ([10]; DMF, organic solvent or mixture, read-out: Solubility at RT): 33000 µg/mL (≈ 65.3 mM)
solubility ([10]; DMSO, organic solvent or mixture, read-out: Solubility at RT): 41000 µg/mL (≈ 81.1 mM)
solubility ([10]; EtOAc, 50 °C, organic solvent or mixture, read-out: Solubility at 50° C.): < 3000 µg/mL
solubility ([10]; EtOAc, organic solvent or mixture, read-out: Solubility at RT): < 3000 µg/mL
solubility ([10]; EtOH, 50 °C, organic solvent or mixture, read-out: Solubility at 50° C.): < 2000 µg/mL
solubility ([10]; EtOH, organic solvent or mixture, read-out: Solubility at RT): < 2000 µg/mL
solubility ([10]; IPA, 50 °C, organic solvent or mixture, read-out: Solubility at 50° C.): < 2000 µg/mL
solubility ([10]; IPA, organic solvent or mixture, read-out: Solubility at RT): < 2000 µg/mL
solubility ([10]; MTBE, 50 °C, organic solvent or mixture, read-out: Solubility at 50° C.): < 2000 µg/mL
solubility ([10]; MTBE, organic solvent or mixture, read-out: Solubility at RT): < 2000 µg/mL
solubility ([10]; MeOH, 50 °C, organic solvent or mixture, read-out: Solubility at 50° C.): > 1000 µg/mL
solubility ([10]; MeOH, organic solvent or mixture, read-out: Solubility at RT): < 1000 µg/mL
solubility ([10]; THF, 50 °C, organic solvent or mixture, read-out: Solubility at 50° C.): > 1000 µg/mL
solubility ([10]; THF, organic solvent or mixture, read-out: Solubility at RT): < 1000 µg/mL
solubility ([10]; acetone, 50 °C, organic solvent or mixture, read-out: Solubility at 50° C.): < 1000 µg/mL
solubility ([10]; acetone, organic solvent or mixture, read-out: Solubility at RT): < 1000 µg/mL
solubility ([10]; water, 50 °C, water, read-out: Solubility at 50° C.): < 2000 µg/mL
solubility ([10]; water, read-out: Solubility at RT): < 2000 µg/mL

Second part, the molecule after the results:

solubility ([2]; MTBE, organic solvent or mixture, thermodynamic from solid, MTBE at RT): < 2000 µg/mL
Solubility in water ([2]; water): > 25000 µg/mL
Comments: hygroscopicity (DVS) [3]: Hygroscopic
hygroscopicity [3]: hygroscopic
Post-DVS XRPD [3]: No change
wt % gain (DVS) ([3]; from 5 to 75% RH): 1.3 wt %
wt % gain (DVS) ([3]; from 75 to 96% RH): 3.2 wt %
Reversibility (DVS) [3]: Reversible
physical stability on drying ([4]; vacuum oven for a day at 62-72° C.): retain its crystalline form
SMILES: Cc1n[nH]c2nc(-c3ccc(NS(=O)(=O)c4cc(F)ccc4F)c(F)c3)nc(NCCN(C)C)c12 [Compound 4 Form A]

form conversion after drying ([4]; obtained by cooling in NMP from 50° C. to 2° C.): converted to Form D
SMILES: Cc1n[nH]c2nc(-c3ccc(NS(=O)(=O)c4cc(F)ccc4F)c(F)c3)nc(NCCN(C)C)c12 [Compound 4 Form E]

relative stability among the crystalline forms [5]: most stable form
XRPD Resulting Form ([8]; Heated to 140° C. at 10° C./min, and cooled to 25° C. at 5° C./min): Form D
XRPD Resulting Form ([8]; Heated to 210° C. at 10° C./min, and cooled to 25° C. at 5° C./min): Form F
Solid stability [6]: chemically and physically stable
Purity, Initial T0 [6]: 99.29%
Purity - 7 days, 60° C. [6]: 99.17%
Purity - 7 days, 40° C./75% RH [6]: 99.29%
XRPD, Initial T0 [6]: Form D
XRPD - 7 days, 60° C. [6]: Form D
XRPD - 7 days, 40° C./75% RH [6]: Form D
hygroscopicity [3]: slightly hygroscopic
Post-DVS XRPD [3]: No change
wt % gain (DVS) ([3]; at 80% RH (25° C.)): 0.99 wt %
water uptake (DVS) ([3]; at 80% RH, 25° C.): 0.99%
SMILES: Cc1n[nH]c2nc(-c3ccc(NS(=O)(=O)c4cc(F)ccc4F)c(F)c3)nc(NCCN(C)C)c12 [Compound 4 Form D]
